Read-outs that look alike come from different tables or passages of the source.
What was measured:
[1] = system: Pseudoperonospora cubensis; assay: Drop-band treatment of cucumber leaves, then spray inoculation with zoospores (Examples 1-3); assay type: in vivo
Description: The following examples were carried out on greenhouse and growth chamber experiments on cucumber plants. The cucumber plants were grown from seed in soil-free medium mix (Metro-Mix 360®) and maintained in a glasshouse with supplementary light sources to provide a 16 hour photoperiod at 24-29° C. until the plants had produced 1-2 true leaves. Plants were then trimmed to 1 true leaf, approximately 8 cm across by removing any additional leaves.
Referring below to Table 1, Dithane M45 and Dithane OS are standard commercial formulations. Isovaleraldehyde loaded onto PergoPak was prepared using the following procedure: a mixture of 1.35 g of PergoPak M (polyurea), 0.15 g of isovaleraldehyde and 8 mL of ether was stirred at room temperature for 10 min. The mixture was then concentrated by rotatory evaporation at room temperature under a slight vacuum to provide a solid that was air dried for an hour at room temperature and then bottled. All treatments were prepared by adding the appropriate amount of each treatment to distilled water to give the desired concentration of active ingredient. Dithane® M45 suspensions were initially prepared via serial dilution. Mancozeb/isovaleraldehyde solutions were prepared by adding a prepared isovaleraldehyde solution to a prepared mancozeb suspension. All solutions were vortexed and sonicated prior to treatment application to ensure that they were homogenous.
A sporangial suspension of Pseudoperonospora cubensis was made by collecting leaves with freshly sporulating lesions and washing them in distilled water, which was made up of equal volumes of chilled (4° C.) and tap distilled water (21° C.). The suspension was then left on the lab bench for 2 hours to allow the release of zoospores from the sporangia. After 2 hours the suspension was filtered through filter paper (“Whatman”, 12.5 cm, grade 113V) to remove any remaining sporangia and mycelial fragments. The zoospore concentration was determined and then adjusted to the desired concentration with distilled water.
For each example described below, an area 5 cm wide by 1 cm deep was initially marked on each cucumber leaf by placing a mark in each corner of the area. This was repeated on four separate plants to give four replicates for each treatment. Ten 15 microlitre drops were then applied to each leaf in two 5 drop bands (1 cm between each drop) and allowed to dry overnight. Subsequently a zoospore suspension of Pseudoperonospora cubensis (30,000 zoospores/mL) was sprayed with a hand-atomiser to the entire leaf until run-off. Plants were placed in a dew room (22° C. and 99% RH) for 24 hours then maintained in a growth room with supplementary light sources to provide a 14 hour photoperiod at 18° C. and 70% RH until disease assessment.
Assessment of the effectiveness of the treatment was done by visual infection within the banded area. The banded area was evaluated on a percentage scale (with 0% representing no infection and 100% representing infection of the entire area) after 5-7 days.

[2] = system: Pseudoperonospora cubensis (PSPECU); details: in vivo
[3] = system: Phytophthora infestans (PHYTIN); assay type: in vivo; details: for effect of Formulation I on the effectiveness of fungicides, PHYTIN: Table 20
[4] = system: Plasmopara viticola (PLASVI); assay type: in vivo; details: for Reduction in percent disease: aldehyde derivative 100 ppm with mancozeb
Phytophthora infestans = assay type: in vivo; details: for % Disease: potatoes, field, six sprays, rated 8 days after sixth application; for Disease control compared to Dithane alone (in words): combined with Dithane, potato field trial
[5] = system: Pseudoperonospora cubensis (PSPECU); assay: Droplet application on cucumber leaf, growth chamber (Examples 5a-d); assay type: in vivo
Description: Examples 5a through 5d were conducted in growth chambers on cucumber plants. Cucumbers (Cucumis sativus cv Bush Pickle Hybrid #901261) were grown from seed in 5 cm by 5 cm pots containing MetroMix™ growth medium (Scotts, Marysville, Ohio) and maintained in a glasshouse with supplementary light sources to provide a 14 hour photoperiod at 24-29° C. until the plants were in the 2-3 true leaf stage of growth and the oldest leaf was fully expanded.
For examples 5a through 5d, described below, samples of mancozeb formulated as Dithane DG NT were dissolved in water to form a ½×dilution series. Mancozeb rates were 400, 200, 100 and 50 ppm. Samples of various aldehydes, amino acids, carboxylic acids, amines and alcohols were dissolved in acetone and then mixed with aqueous solutions of mancozeb. Attractant rates in the dilute solutions were 100, 200, 500 or 1000 ppm, depending on the experiment.
Mixtures of attractant or attractant derivative plus mancozeb or mancozeb alone were applied to cucumber as a row of 5 or 7.5 ul droplets using a multi-channel pipetting device. Five droplets spaced 1 cm apart were placed along the mid-rib of the expanded cucumber leaf with the first droplet being positioned at least 1-cm from the leaf apex. Each treatment was replicated three or four times, depending on the experiment. Two to three hours after applying the treatments when droplets had dried, plants were inoculated with a suspension of sporangia of a Pseudoperonospora cubensis (PSPECU) and incubated as described in the methods for sprayed tests. When symptoms were well developed in untreated check plants, the experiment was assessed visually using a template 2 cm wide and 7 cm long with the long axis centered on the mid-rib of the treated leaf.
Reduction in percent disease was calculated by subtracting percent disease on plants receiving a mixture of mancozeb plus the specified test substance from percent disease on plants receiving mancozeb alone. The results for examples 5a-5d are shown below in Tables 7-10; the reduction in percent disease was indicated as follows: […]

[6] = assay type: in vivo; details: mancozeb:fluazinam 1:1, mancozeb:dimethomorph 2:1, Formul. I/II at 100 ppm, untreated check 95%
[7] = Dithane 600 g ai/ha plus 300 ppm compound
[8] = substance alone 500 ppm, untreated check 95
[9] = fungicide with Formulation I at 100 ppm
[10] = fungicide with Formulation I at 100 ppm, Table 18
[11] = fungicide with Formulation I at 100 ppm, Table 19

N#Cc1c(Cl)c(Cl)c(Cl)c(C#N)c1Cl [Chlorothalonil, chlorothalonil]
Percent infection of Pseudoperonospora cubensis on cucumbers ([1]; chlorothalonil 5 ppm alone, 7 days after application): 24% | Percent infection of Pseudoperonospora cubensis on cucumbers ([1]; chlorothalonil 20 ppm alone, 7 days after application): 9% | Percent infection of Pseudoperonospora cubensis on cucumbers ([1]; chlorothalonil 100 ppm alone, 7 days after application): 0% | Reduction in percent disease, Formul. I [2]: x (key: x: 0-20% reduction in percent disease; xx: 21-35% reduction in percent disease; xxx: 36-50% reduction in percent disease; xxxx: >50% reduction in percent disease) | Reduction in percent disease, Formul. I ([3]; PHYTIN, fungicide with Formulation I at 100 ppm of attractant derivative, Table 22): x (0-20% reduction in percent disease) | Reduction in percent disease, Formul. I ([4]; PLASVI, fungicide with Formulation I at 100 ppm of attractant derivative, Table 22): x (0-20% reduction in percent disease)

CCCC=NNC(=O)Nc1ccccc1 [Compound A]
% Disease (Phytophthora infestans; 300 ppm compound alone): 98% | % Disease (Phytophthora infestans; [7]): 20% | Disease control compared to Dithane alone (in words) (Phytophthora infestans): significantly improve disease control | Reduction in percent disease [2]: xx (key: x: 0-20% reduction in percent disease; xx: 21-35% reduction in percent disease; xxx: 36-50% reduction in percent disease; xxxx: >50% reduction in percent disease) | Reduction in percent disease ([4]; PLASVI, Table 13): xx (21-35% reduction in percent disease)

CC(C)CC(O)S(=O)(=O)[O-].[Na+] (stereo not shown) [Isovaleraldehyde bisulfite adduct, sodium]
Percent infection of Pseudoperonospora cubensis on cucumbers ([1]; isovaleraldehyde bisulfite adduct, sodium 100 ppm alone, 7 days): 45%

CC(C)CC=O [Isovaleraldehyde, isovaleraldehyde]
Percent infection of Pseudoperonospora cubensis on cucumbers ([1]; isovaleraldehyde 50 ppm (sorbed to PergoPak M) alone, 5 days after application): 41% | Percent infection of Pseudoperonospora cubensis on cucumbers ([1]; isovaleraldehyde 100 ppm (sorbed to PergoPak M) alone, 5 days after application): 34% | Percent infection of Pseudoperonospora cubensis on cucumbers ([1]; isovaleraldehyde 100 ppm alone, 7 days after application): 41% | Percent infection of Pseudoperonospora cubensis on cucumbers ([1]; isovaleraldehyde 500 ppm (sorbed to PergoPak M) alone, 5 days after application): 44% | Percent infection of Pseudoperonospora cubensis on cucumbers ([1]; pure isovaleraldehyde 50 ppm alone, 6 days after application): 51% | Percent infection of Pseudoperonospora cubensis on cucumbers ([1]; pure isovaleraldehyde 100 ppm alone, 6 days after application): 44% | Reduction in % Disease ([5]; substance 100 ppm with mancozeb 200 ppm vs mancozeb alone, Table 9): xx (21-35% reduction in percent disease) | Reduction in % Disease ([5]; substance 200 ppm with mancozeb 50 ppm vs mancozeb alone, cucumber): xxxx (>50% reduction in percent disease) | Reduction in % Disease ([5]; substance 500 ppm with mancozeb 200 ppm vs mancozeb alone, Table 8): xx (21-35% reduction in percent disease) | Reduction in % Disease ([5]; substance 1000 ppm with mancozeb 50 ppm vs mancozeb alone, cucumber): xxx (36-50% reduction in percent disease) | % disease at 100 ppm of substance alone ([5]; substance alone 100 ppm, untreated check 92%, Table 9): 86% | % disease at 500 ppm of substance alone ([5]; substance alone 500 ppm, untreated check 91%): 93% | % disease at 1000 ppm of substance alone ([5]; substance alone 1000 ppm, untreated check 100%): 100% | Reduction in percent disease PHYTIN ([3]; substance 500 ppm with mancozeb 25 ppm (Dithane DGNT), foliar spray, inoculated 2 to 3 hours after treatment): xxx (36-50% reduction in percent disease) | % disease at 500 ppm of substance alone PHYTIN [3, 8]: 77% | Reduction in percent disease PLASVI ([4]; substance 500 ppm with mancozeb 6.25 ppm (Dithane DGNT), foliar spray, inoculated 2 to 3 hours after treatment): xxx (36-50% reduction in percent disease) | % disease at 500 ppm of substance alone PLASVI [4, 8]: 93%

CCC(C)(NC(=O)c1cc(Cl)c(C)c(Cl)c1)C(=O)CCl (stereo not shown) [Zoxamide, zoxamide]
Percent infection of Pseudoperonospora cubensis on cucumbers ([1]; zoxamide 1 ppm alone, 7 days after application): 28% | Percent infection of Pseudoperonospora cubensis on cucumbers ([1]; zoxamide 5 ppm alone, 7 days after application): 16% | Percent infection of Pseudoperonospora cubensis on cucumbers ([1]; zoxamide 25 ppm alone, 7 days after application): 16% | effect of Formulation I on the effectiveness of fungicides, PSPECU [2]: x (key: x: 0-20% reduction in percent disease; xx: 21-35% reduction in percent disease; xxx: 36-50% reduction in percent disease; xxxx: >50% reduction in percent disease) | effect of Formulation I on the effectiveness of fungicides, PHYTIN [3, 9]: xx (21-35% reduction in percent disease)

condensation product of urea and isovalderaldehyde [Compound B]
% Disease (Phytophthora infestans; 300 ppm compound alone): 98% | % Disease (Phytophthora infestans; [7]): 9% | Disease control compared to Dithane alone (in words) (Phytophthora infestans): significantly improve disease control | Reduction in percent disease [2]: x (key: x: 0-20% reduction in percent disease; xx: 21-35% reduction in percent disease; xxx: 36-50% reduction in percent disease; xxxx: >50% reduction in percent disease) | Reduction in percent disease ([4]; PLASVI, Table 13): xx (21-35% reduction in percent disease) | Reduction in percent disease ([4]; PLASVI, Table 15): xx (21-35% reduction in percent disease)

mancozeb
Percent infection of Pseudoperonospora cubensis on cucumbers ([1]; mancozeb 10 ppm (Dithane 60 OS) alone, 5 days after application): 31% | Percent infection of Pseudoperonospora cubensis on cucumbers ([1]; mancozeb 10 ppm (Dithane M45) alone, 6 days after application): 31% | Percent infection of Pseudoperonospora cubensis on cucumbers ([1]; mancozeb 10 ppm (Dithane M45) alone, 7 days after application): 30% | Percent infection of Pseudoperonospora cubensis on cucumbers ([1]; mancozeb 50 ppm (Dithane 60 OS) alone, 5 days after application): 25% | Percent infection of Pseudoperonospora cubensis on cucumbers ([1]; mancozeb 50 ppm (Dithane M45) alone, 6 days after application): 21% | Percent infection of Pseudoperonospora cubensis on cucumbers ([1]; mancozeb 50 ppm (Dithane M45) alone, 7 days after application): 11% | Percent infection of Pseudoperonospora cubensis on cucumbers ([1]; mancozeb 100 ppm (Dithane 60 OS) alone, 5 days after application): 10% | Percent infection of Pseudoperonospora cubensis on cucumbers ([1]; mancozeb 100 ppm (Dithane M45) alone, 6 days after application): 16% | Percent infection of Pseudoperonospora cubensis on cucumbers ([1]; mancozeb 100 ppm (Dithane M45) alone, 7 days after application): 6% | effect of Formulation I on the effectiveness of fungicides, PSPECU [2]: xx (key: x: 0-20% reduction in percent disease; xx: 21-35% reduction in percent disease; xxx: 36-50% reduction in percent disease; xxxx: >50% reduction in percent disease) | Reduction in percent disease PHYTIN [3, 10]: x (0-20% reduction in percent disease) | Reduction in percent disease PHYTIN [3, 11]: xxx (36-50% reduction in percent disease) | effect of Formulation I on the effectiveness of fungicides, PHYTIN [3, 9]: xx (21-35% reduction in percent disease) | Reduction in percent disease PLASVI [4, 10]: xx (21-35% reduction in percent disease) | Reduction in percent disease PLASVI [4, 11]: xx (21-35% reduction in percent disease) | effect of Formulation I on the effectiveness of fungicides, PLASVI ([4]; fungicide with Formulation I at 100 ppm, Table 20): xx (21-35% reduction in percent disease) | Percent disease ([6]; 1.6 ppm mancozeb): 71% | Percent disease ([6]; 3.1 ppm mancozeb): 79%
